Test results taken from patent US10590140B2, “Tetrahydropyrimidodiazepine and dihydropyridodiazepine compounds for treating pain and pain related conditions” (ESTEVE PHARMACEUTICALS, S.A., priority 2016, dated 2020).

Target: human α2δ-1 subunit of Cav2.2 calcium channel (Homo sapiens (Human), UniProt P54289)
Test: Binding assay to human α2δ-1 subunit of Cav2.2 calcium channel ([3H]-Gabapentin)
Conditions: binding to α2δ-1, [3H]-Gabapentin; read-out: Ki (nM) α2δ-1
Method in brief: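 [3H]-gabapentin binding, 60 min at 27° C; nonspecific binding defined with 10 μM pregabalin. Terminated by filtration on PEI-presoaked GF/C filters, ice-cold 50 mM Tris-HCl pH 7.4 washes, then scintillation counting.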

Chain of human α2δ-1 subunit of Cav2.2 calcium channel (P54289 25-1103): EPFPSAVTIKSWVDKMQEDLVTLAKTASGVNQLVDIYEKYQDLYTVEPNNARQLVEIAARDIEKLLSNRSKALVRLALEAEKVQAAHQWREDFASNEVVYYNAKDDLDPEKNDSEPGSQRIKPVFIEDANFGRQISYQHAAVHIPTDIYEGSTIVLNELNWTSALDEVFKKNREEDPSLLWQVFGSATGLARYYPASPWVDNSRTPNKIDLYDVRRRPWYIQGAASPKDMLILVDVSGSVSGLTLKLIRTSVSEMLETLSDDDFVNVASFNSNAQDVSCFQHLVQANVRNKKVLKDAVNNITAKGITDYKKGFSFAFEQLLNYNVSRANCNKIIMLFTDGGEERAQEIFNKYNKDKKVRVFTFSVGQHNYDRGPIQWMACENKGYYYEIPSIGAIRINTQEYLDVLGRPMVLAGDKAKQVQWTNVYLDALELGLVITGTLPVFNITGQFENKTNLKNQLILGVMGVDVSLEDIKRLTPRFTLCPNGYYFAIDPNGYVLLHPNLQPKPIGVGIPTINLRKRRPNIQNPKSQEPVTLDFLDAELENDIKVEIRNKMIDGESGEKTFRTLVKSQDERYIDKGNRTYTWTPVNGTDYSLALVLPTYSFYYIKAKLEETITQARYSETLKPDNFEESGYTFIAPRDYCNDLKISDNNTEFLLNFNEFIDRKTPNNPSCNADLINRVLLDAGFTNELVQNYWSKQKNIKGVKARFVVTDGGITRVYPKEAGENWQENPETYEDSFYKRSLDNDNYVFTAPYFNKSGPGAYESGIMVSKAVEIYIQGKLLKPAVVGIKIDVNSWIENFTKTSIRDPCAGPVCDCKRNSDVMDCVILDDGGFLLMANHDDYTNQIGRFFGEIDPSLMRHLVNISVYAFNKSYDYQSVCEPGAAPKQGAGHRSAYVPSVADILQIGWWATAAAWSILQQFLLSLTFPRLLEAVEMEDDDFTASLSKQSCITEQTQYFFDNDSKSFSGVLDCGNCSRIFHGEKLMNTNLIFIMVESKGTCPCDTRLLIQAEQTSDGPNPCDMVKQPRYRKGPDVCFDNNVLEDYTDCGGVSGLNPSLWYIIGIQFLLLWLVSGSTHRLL

Row | SMILES | Ki
1 | CCNc1ncc2c(n1)N(C)CCN(Cc1cccc(OC)c1)C2 [Example 67, N-ethyl-6-(3-methoxybenzyl)-9-methyl-6,7,8,9-tetrahydro-5H-pyrimido[4,5-e][1,4]diazepin-2-amine] | > 3000 nM
2 | Cc1nnc(-c2cccc(N3CCN(C)c4nc(N(C)Cc5ccccc5)ncc4C3=O)c2)o1 [Example 104, 2-(benzyl(methyl)amino)-9-methyl-6-(3-(5-methyl-1,3,4-oxadiazol-2-yl)phenyl)-6,7,8,9-tetrahydro-5H-pyrimido[4,5-e][1,4]diazepin-5-one] | > 3000 nM
3 | CSc1ncc2c(n1)N(C)CCN(c1cccc(Cn3cc(CN(C)C(=O)OC(C)(C)C)nn3)c1)C2=O [Example 44, tert-butyl methyl((1-(3-(9-methyl-2-(methylthio)-5-oxo-5,7,8,9-tetrahydro-6H-pyrimido[4,5-e][1,4]diazepin-6-yl)benzyl)-1H-1,2,3-triazol-4-yl)methyl) carbamate] | > 3000 nM
4 | CCNc1ncc2c(n1)N(C)CCN(c1cccc(OC(CCNCCF)c3cccs3)c1)C2=O (stereo not drawn) [Example 220, 2-(ethylamino)-6-(3-(3-((2-fluoroethyl)amino)-1-(thiophen-2-yl)propoxy)phenyl)-9-methyl-6,7,8,9-tetrahydro-5H-pyrimido[4,5-e][1,4]diazepin-5-one] | 500 to 3000 nM
5 | CCNc1ncc2c(n1)N(C)CCN(c1ccc(OC)cc1)C2=O [Example 114, 2-(ethylamino)-6-(4-methoxyphenyl)-9-methyl-6,7,8,9-tetrahydro-5H-pyrimido[4,5-e][1,4]diazepin-5-one] | > 3000 nM
6 | CN(CC[C@@H](OCc1cccc(N2CCN(C)c3nc(N(C)C)ncc3C2=O)c1)c1ccccc1)C(=O)OC(C)(C)C [Example 131, tert-butyl (R)-(3-((3-(2-(dimethylamino)-9-methyl-5-oxo-5,7,8,9-tetrahydro-6H-pyrimido[4,5-e][1,4]diazepin-6-yl)benzyl)oxy)-3-phenylpropyl)(methyl) carbamate] | > 3000 nM

More lines, now with the values ahead:

Row | Ki | SMILES
7 | > 3000 nM | CCNc1ncc2c(n1)N(C)CCN(c1cccc(C(C)(C)CN(C)C(=O)OC(C)(C)C)c1)C2=O [Example 93, tert-butyl (2-(3-(2-(ethylamino)-9-methyl-5-oxo-5,7,8,9-tetrahydro-6H-pyrimido[4,5-e][1,4]diazepin-6-yl)phenyl)-2-methylpropyl)(methyl) carbamate]
8 | 100 to 500 nM | CCNc1ncc2c(n1)N(C)CCN(c1cccc(-c3nnc(CN4CCC(c5ccccc5)(N(C)C)CC4)o3)c1)C2=O [Example 441, 6-(3-(5-((4-(dimethylamino)-4-phenylpiperidin-1-yl)methyl)-1,3,4-oxadiazol-2-yl)phenyl)-2-(ethylamino)-9-methyl-6,7,8,9-tetrahydro-5H-pyrimido[4,5-e][1,4]diazepin-5-one]
9 | > 3000 nM | CSc1ncc2c(n1)N(C)CCN(c1cccc(CN(C)C(=O)OC(C)(C)C)c1)C2=O [Example 26, tert-butyl methyl(3-(9-methyl-2-(methylthio)-5-oxo-5,7,8,9-tetrahydro-6H-pyrimido[4,5-e][1,4]diazepin-6-yl)benzyl) carbamate]
10 | 100 to 500 nM | CNc1ncc2c(n1)N(C)CCN(c1cccc(-c3nnc(C)o3)c1)C2=O [Example 100, 9-methyl-6-(3-(5-methyl-1,3,4-oxadiazol-2-yl)phenyl)-2-(methylamino)-6,7,8,9-tetrahydro-5H-pyrimido[4,5-e][1,4]diazepin-5-one]
11 | 100 to 500 nM | CCNc1ncc2c(n1)N(C)CCN(c1cccc(-n3cc(CNC)cn3)c1)C2=O [Example 185, 2-(ethylamino)-9-methyl-6-(3-(4-((methylamino)methyl)-1H-pyrazol-1-yl)phenyl)-6,7,8,9-tetrahydro-5H-pyrimido[4,5-e][1,4]diazepin-5-one]
12 | 100 to 500 nM | CCNc1ncc2c(n1)N(C)CCN(c1cccc(OC3CCNC3)c1)C2=O (stereo not drawn) [Example 175, 2-(ethylamino)-9-methyl-6-(3-(pyrrolidin-3-yloxy)phenyl)-6,7,8,9-tetrahydro-5H-pyrimido[4,5-e][1,4]diazepin-5-one]
